{"source": "paper PMC6226504", "about": "“Ca^2+ efflux via plasma membrane Ca^2+-ATPase mediates chemotaxis in ascidian sperm” (Scientific Reports, 2018)", "target": "T1, plasma membrane Ca2+-ATPase (PMCA), Atp2b-var.b-mut3 (Ciona intestinalis, UniProt A0A3G9HPC9, R951A/H956A/H962A)", "T1 construct": "Atp2b-var.b-mut3, recombinant, in Sf9 cell membrane fraction", "T1 sequence (A0A3G9HPC9 1-1165 R951A/H956A/H962A)": "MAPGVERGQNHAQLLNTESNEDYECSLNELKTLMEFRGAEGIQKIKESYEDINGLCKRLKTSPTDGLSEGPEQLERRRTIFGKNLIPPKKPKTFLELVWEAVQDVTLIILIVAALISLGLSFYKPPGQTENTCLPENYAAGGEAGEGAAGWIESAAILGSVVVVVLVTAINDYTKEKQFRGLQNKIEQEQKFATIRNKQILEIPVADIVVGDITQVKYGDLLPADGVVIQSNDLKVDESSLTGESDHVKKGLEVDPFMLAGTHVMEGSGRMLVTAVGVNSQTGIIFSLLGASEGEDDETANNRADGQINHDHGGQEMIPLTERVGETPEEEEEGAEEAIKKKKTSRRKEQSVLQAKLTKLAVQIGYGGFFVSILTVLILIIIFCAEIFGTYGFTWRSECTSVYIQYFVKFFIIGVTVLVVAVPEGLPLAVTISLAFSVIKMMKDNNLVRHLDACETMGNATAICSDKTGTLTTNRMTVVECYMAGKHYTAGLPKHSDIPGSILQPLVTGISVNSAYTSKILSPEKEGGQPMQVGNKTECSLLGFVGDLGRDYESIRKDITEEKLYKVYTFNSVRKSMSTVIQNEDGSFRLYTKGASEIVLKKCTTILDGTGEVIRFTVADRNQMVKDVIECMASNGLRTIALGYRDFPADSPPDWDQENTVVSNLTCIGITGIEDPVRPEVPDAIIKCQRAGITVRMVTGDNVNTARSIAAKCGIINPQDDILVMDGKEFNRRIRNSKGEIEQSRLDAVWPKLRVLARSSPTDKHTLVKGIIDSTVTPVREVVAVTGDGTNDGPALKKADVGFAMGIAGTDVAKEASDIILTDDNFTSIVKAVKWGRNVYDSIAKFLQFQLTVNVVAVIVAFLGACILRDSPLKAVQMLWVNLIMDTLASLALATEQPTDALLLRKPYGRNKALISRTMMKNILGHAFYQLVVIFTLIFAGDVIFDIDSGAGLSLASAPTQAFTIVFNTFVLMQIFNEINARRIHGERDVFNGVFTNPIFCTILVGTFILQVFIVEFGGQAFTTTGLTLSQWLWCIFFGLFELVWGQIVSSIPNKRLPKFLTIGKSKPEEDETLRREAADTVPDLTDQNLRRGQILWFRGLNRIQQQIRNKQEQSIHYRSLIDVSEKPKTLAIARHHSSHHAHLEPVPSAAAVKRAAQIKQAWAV", "assay": "quartz crystal microbalance (QCM), mutant compared with wild-type membranes", "type": "binding"}
{"molecule": "C[C@@H](CCC[C@@H](C)[C@H]1CC[C@H]2[C@@H]3[C@H](O)C[C@H]4[C@@H](O)[C@H](OS(=O)(=O)O)CC[C@]4(C)[C@H]3CC[C@]12C)COS(=O)(=O)O", "note": "[SAAF]", "values": [{"measurement": "quartz crystal microbalance (QCM), mutant compared with wild-type membranes", "value": "Atp2b-var.b-mut3 showed the same interaction compared to the wild-type"}]}
